Patent publication US20220290140A1, “TRANS-CYCLOOCTENE LABELED ANTISENSE OLIGONUCLEOTIDES, RADIO LABELED TETRAZINE AND METHODS” (Biogen MA Inc., priority 2019, published 2022)
Like-named read-outs stand apart in the source and are kept apart here. One block for each compound: values may come before it.

Tests used:
[1] = Static PET/CT of spine in NHP, spinal cord ROI with muscle as reference; type: in vivo; conditions: cynomolgus monkey, 24 h post-ASO scan
Procedure: (§1) Dynamic PET scans (0-120 min) with arterial input function were performed on a female cynomolgous monkey using ^18F-537-Tz (5.7±0.7 mCi, 0.14±0.12 μg) in order to evaluate the tracer's efficacy in non-human primates. Parent fraction of tracer in arterial plasma was determined by extracting tracer using acetonitrile and analysis by radioHPLC. Baseline scans were performed first, measuring tracer kinetics in the brain. Malat1 ASO-TCO (20 mg in 2.4 mL aCSF) was then injected intrathecally under fluoroscopic guidance and ^18F-537-Tz PET/CT imaging performed at 24 h and 168 h under isoflurane anesthesia. Imaging data were co-registered to a cyno brain atlas, and TAC in subregions of interest were derived from them. Static PET/CT scans were acquired in each imaging session, with the field of view (FOV) oriented to capture the spine. This scan took place 130-160 min p.i. of tracer, and an ROI drawn over the spinal cord with muscle as a reference region.

[2] = Microsome stability; type: in vitro ADME; conditions: microsomes; read-out: Microsome Stability t1/2
[3] = Brain protein binding (BPB); type: in vitro ADME
From the text: (§2) As pretargeting is a 2-component system, an ^18F-Tz was developed to be CNS-penetrant based on cnsPET-MPO modeling (Zhang, L., et al. (2018). J Med Chem 61(8): 3296-3308).

[4] = Pretargeted PET/CT imaging, ASO-TCO i.t. then 18F-Tz i.v.; type: in vivo, Sprague-Dawley rats
Procedure: Sprague-Dawley rats were administered ASO-TCO intrathecally (2.5 mM in 30 μL saline). After either 24 hours (center) or 168 hours (right), those rats were then injected I.V. with ^18F-537-Tz (22-30 MBq; […]; 0.2 nmol). Rats were imaged by PET-CT from 75-90 min. post-injection of radiotracer. Control rats (left) received saline only.
FIG. 5 is a bar graph showing Regions of Interest (ROI) drawn from the PET data. Ratios were obtained of % ID/g in tissue of interest (brain and spine) to the reference region (heart). […] Lanes in bar graph depicted from left to right: ASO-TCO (brain:heart); Naive (brain:heart); ASO-TCO (spine:heart); and Naive (spine:heart).
Rats were administered Malat1 ASO-TCO intrathecally (I.T.) and 24 hours later were given ^18F-Tz intravenously (I.V.). They were then imaged 75-90 p.i. by PET/CT.
The same uptake is not seen in rats that received only the ^18F-Tz radiotracer.

[5] = rat, in vivo, 1 mg/kg
Procedure: (§3) Dynamic PET scans were performed with arterial sampling to determine parent fraction of the tracer ^18F-537-Tz in baseline and pretargeted scans. Baseline imaging with a comparison to a homologous block with non-radioactive compound ^19F-537-Tz at 1 mg/kg was performed on a single rat, where non-radioactive compound was administered i.v. 5 min before injection of tracer. Next, three additional rats were imaged at baseline with no ASO-TCO administered. A final three rats received pretargeted scans and were dosed intrathecally with 0.56 mg Malat1 ASO-TCO in 30 μL saline followed by a 40 μL saline flush. 24 h after injection of the ASO, ^18F-537-Tz was injected intravenously and dynamic PET imaging performed.
A metabolite analysis method was developed to enable the tracer kinetic modelling using metabolite corrected plasma activity as an input function. The plasma radioactivity extraction efficiency for all samples was determined and was satisfactory using 1:1 plasma:ACN. The recovery from the HPLC column of the injected radioactivity was determined for each plasma extract injected. Good recovery of the injected radioactivity from the HPLC column was obtained for each plasma extract injection. For the 3 baseline scans, the parent compound fraction of the total activity found in plasma was 86-90% at 5 min, and this fraction decreased to 66-74% at 60 min after ^18F-537-Tz injection. […]

[6] = Parent fraction and blood kinetics of tracer in arterial plasma in NHP; type: in vivo, cynomolgus monkey
Procedure: as §1

[7] = Dynamic PET scans of brain, baseline, homologous block and pretargeted; type: in vivo, rat
Procedure: as §3
Time-activity-curves (TAC) from 0 to 60 min showing the brain subregion distribution of ^18F-537-Tz in rat 2 at baseline and following iv administration of 1 mg/kg of unlabeled […] are illustrated in FIG. 9. […] The average brain regional SUV from 40-60 min of the scans were similar in the baseline and homologous block scans (Table 1).
PET/CT images with summed radioactivity from 0 to 60 min showing the brain distribution of ^18F-537-Tz in the 4 rats scanned at baseline and the 3 rats scanned 24 h after i.t. administration of ASO-TCO are illustrated in FIG. 10. There was an increase in brain uptake of radioactivity observed in all the ASO-TCO dosed rats. There was an increase of ca. […]

[8] = Dynamic PET/CT of brain in NHP, baseline and post Malat1 ASO-TCO; type: in vivo; conditions: cynomolgus monkey
Procedure: The pretargeting PET tracer ^18F-537-Tz was tested in a cynomolgus monkey, including baseline scans and a homologous blocking scan. The monkey was then dosed with Malat1 ASO-TCO and scanned again at 24 h and 168 h.
as §1

[9] = target: T1, BCRP (Homo sapiens, UniProt Q9UNQ0); assay: in vitro; type: in vitro ADME; conditions: dog
T1 construct: expressed in transfected cells; host or cells: MDCK (canine kidney) cells expressing BCRP
T1 sequence (Q9UNQ0 1-655): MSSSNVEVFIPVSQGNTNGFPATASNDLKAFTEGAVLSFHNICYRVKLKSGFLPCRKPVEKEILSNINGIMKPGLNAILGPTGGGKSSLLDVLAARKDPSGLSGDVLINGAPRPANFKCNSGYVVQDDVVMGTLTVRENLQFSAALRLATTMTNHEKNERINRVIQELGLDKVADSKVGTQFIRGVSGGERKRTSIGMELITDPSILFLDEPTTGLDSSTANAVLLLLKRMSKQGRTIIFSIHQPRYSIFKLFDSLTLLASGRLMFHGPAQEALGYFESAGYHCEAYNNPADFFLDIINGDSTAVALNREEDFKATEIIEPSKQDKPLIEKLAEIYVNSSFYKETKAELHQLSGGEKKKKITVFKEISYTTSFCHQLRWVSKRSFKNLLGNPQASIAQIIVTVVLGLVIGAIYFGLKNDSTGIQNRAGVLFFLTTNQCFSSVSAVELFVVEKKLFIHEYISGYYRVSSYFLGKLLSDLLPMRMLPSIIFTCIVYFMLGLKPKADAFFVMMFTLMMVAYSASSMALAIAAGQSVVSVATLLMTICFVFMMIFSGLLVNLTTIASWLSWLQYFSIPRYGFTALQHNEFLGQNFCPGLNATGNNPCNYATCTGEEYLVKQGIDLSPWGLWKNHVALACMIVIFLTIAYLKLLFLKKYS
From the text: as §2

[10] = Static PET/CT of upper spine and CSF; type: in vivo, rat
From the text: The static PET/CT images of ^18F-537-Tz uptake in the upper rat spine are illustrated in FIG. 12. […] There was a 10% and 15% increase in the radioactivity uptake in the spine and CSF when comparing the baseline and post ASO-TCO dosed rats (Table 4).

[11] = Plasma protein binding (PPB); type: in vitro ADME; conditions: rat
From the text: as §2

[12] = parameters: species or system mice; conditions: mouse, in vivo, 10 min
From the text: as §2

[13] = target: T2, P-gp (Homo sapiens, UniProt P08183); assay: MDCK-P-gp cell model of permeability (efflux ratio); type: in vitro ADME; conditions: dog, MDCK-MDR1
T2 construct: expressed in transfected cells; host or cells: MDCK (canine kidney) cells expressing P-gp
T2 sequence (P08183 whole entry): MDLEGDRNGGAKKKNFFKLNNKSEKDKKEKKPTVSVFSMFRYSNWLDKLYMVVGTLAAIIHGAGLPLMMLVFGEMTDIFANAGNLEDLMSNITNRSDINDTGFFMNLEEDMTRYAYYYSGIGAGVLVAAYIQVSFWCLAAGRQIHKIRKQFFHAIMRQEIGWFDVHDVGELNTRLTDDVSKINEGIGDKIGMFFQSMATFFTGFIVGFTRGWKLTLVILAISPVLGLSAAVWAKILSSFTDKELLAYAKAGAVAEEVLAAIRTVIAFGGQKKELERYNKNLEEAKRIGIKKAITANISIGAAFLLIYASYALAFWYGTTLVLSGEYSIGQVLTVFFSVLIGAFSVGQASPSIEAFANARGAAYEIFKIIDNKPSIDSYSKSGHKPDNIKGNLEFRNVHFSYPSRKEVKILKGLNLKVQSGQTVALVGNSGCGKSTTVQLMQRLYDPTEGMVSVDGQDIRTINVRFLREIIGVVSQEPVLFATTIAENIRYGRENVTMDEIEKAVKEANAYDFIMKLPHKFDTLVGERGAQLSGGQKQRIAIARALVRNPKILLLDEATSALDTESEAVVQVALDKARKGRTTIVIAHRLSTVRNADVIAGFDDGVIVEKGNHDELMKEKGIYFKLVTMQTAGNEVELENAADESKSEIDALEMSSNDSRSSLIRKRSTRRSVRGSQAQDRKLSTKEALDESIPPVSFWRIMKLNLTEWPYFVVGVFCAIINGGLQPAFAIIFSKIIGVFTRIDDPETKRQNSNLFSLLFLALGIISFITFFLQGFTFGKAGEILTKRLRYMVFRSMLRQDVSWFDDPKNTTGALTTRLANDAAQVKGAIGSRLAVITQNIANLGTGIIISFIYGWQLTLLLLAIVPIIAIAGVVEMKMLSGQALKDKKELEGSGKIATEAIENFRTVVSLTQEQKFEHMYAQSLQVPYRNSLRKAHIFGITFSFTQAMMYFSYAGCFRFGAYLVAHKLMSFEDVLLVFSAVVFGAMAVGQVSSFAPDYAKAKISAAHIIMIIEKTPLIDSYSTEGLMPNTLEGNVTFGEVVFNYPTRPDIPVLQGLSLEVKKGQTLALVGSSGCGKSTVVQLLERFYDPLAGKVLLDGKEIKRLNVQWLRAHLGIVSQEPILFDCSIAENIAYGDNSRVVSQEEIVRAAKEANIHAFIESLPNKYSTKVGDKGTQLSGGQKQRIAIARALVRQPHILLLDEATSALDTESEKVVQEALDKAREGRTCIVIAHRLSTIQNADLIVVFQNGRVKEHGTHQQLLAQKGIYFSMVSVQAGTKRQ
From the text: as §2

[14] = rats treated with ASO-TCO vs control rats that received only tracer, P<0.005
[15] = rat Subject 2, Baseline scan, 40-60 min p.i. of tracer
[16] = rat Subject 2, Postdose (homologous block, 1 mg/kg non-radioactive compound i.v. 5 min before tracer), 40-60 min p.i.
[17] = rats, Baseline group (no ASO-TCO), 40-60 min p.i. of tracer
[18] = rats, Baseline group, 40-60 min p.i. of tracer
[19] = rats, Pretargeted group (0.56 mg Malat1 ASO-TCO i.t. 24 h before tracer), 40-60 min p.i.
[20] = rats, Pretargeted group (Malat1 ASO-TCO i.t. 24 h before tracer), 40-60 min p.i.
[21] = rats, Pretargeted vs Baseline, 40-60 min p.i.
[22] = baseline vs post ASO-TCO dosed rats
[23] = rats, Baseline group, ca. 70-80 min after tracer injection

Compound: O=C(Cc1ccc(-c2nncnn2)cc1)NCC[18F] [Compound 1]
spinal cord SUV normalized to muscle, higher signal than baseline scan [1]: ~25%
half-life [2]: 1.4 h
BPB (rat) unbound [3]: 51%
uptake of tracer in brain and spinal cord (PET/CT images) ([4]; rats given Malat1 ASO-TCO I.T. 24 hours before tracer I.V., imaged 75-90 p.i.): specific uptake
Brain-to-heart ratio from ROIs [4, 14]: significantly higher
spine-to-heart ratio from ROIs [4, 14]: significantly higher
parent compound fraction of total activity in plasma ([5]; 5 min): 82%
parent compound fraction of total activity in plasma ([5]; 60 min): 62%
Parent fraction, tracer intact ([6]; cynomolgus monkey arterial plasma, over the course of imaging): > 80%
Blood kinetics of the tracer ([6]; cynomolgus monkey, over 30 min): uptake and rapid clearance
SUV Plasma (40-60 min) ([7]; rat Subject 2, Baseline scan): 1.12
SUV Brain [7, 15]: 1.29
SUV Cerebellum [7, 15]: 1.38
SUV Cortex [7, 15]: 1.07
SUV Frontal Cortex [7, 15]: 1.16
SUV Hippocampus [7, 15]: 1.28
SUV Hypothalamus [7, 15]: 1.45
SUV Thalamus [7, 15]: 1.46
SUV Plasma (40-60 min) ([7]; rat Subject 2, Postdose (homologous block, 1 mg/kg non-radioactive compound i.v. 5 min before tracer)): 1.45
SUV Brain [7, 16]: 1.22
SUV Cerebellum [7, 16]: 1.38
SUV Cortex [7, 16]: 1.10
SUV Frontal Cortex [7, 16]: 1.24
SUV Striatum [7, 16]: 1.40
SUV Thalamus [7, 16]: 1.52
SUV Hippocampus ([7]; rat, in vivo): 1.43
SUV Striatum ([7]; rat, in vivo): 1.42
SUV Hippocampus ([7]; rat, in vivo, iv, 1 mg/kg): 1.27
SUV Hypothalamus ([7]; rat, in vivo, iv, 1 mg/kg): 1.43
SUV Cerebellum [7, 17]: 1.52
SUV Cortex [7, 17]: 1.25
SUV Frontal Cortex [7, 17]: 1.33
SUV Hypothalamus [7, 17]: 1.62
SUV Plasma [7, 17]: 1.22
SUV Striatum [7, 17]: 1.52
SUV Thalamus [7, 17]: 1.64
SUV Whole Brain [7, 17]: 1.45
SUV normalized to plasma, Cerebellum [7, 18]: 1.27
SUV normalized to plasma, Cortex [7, 18]: 1.05
SUV normalized to plasma, Frontal Cortex [7, 18]: 1.11
SUV normalized to plasma, Hippocampus [7, 18]: 1.2
SUV normalized to plasma, Hypothalamus [7, 18]: 1.36
SUV normalized to plasma, Striatum [7, 18]: 1.27
SUV normalized to plasma, Thalamus [7, 18]: 1.37
SUV normalized to plasma, Whole Brain [7, 18]: 1.21
SUV Cerebellum [7, 19]: 1.9
SUV Cortex [7, 19]: 1.66
SUV Frontal Cortex [7, 19]: 1.66
SUV Hippocampus [7, 19]: 1.85
SUV Hypothalamus [7, 19]: 1.89
SUV Plasma [7, 19]: 1.18
SUV Striatum [7, 19]: 1.77
SUV Thalamus [7, 19]: 1.95
SUV Whole Brain [7, 19]: 1.79
SUV normalized to plasma, Cerebellum [7, 20]: 1.67
SUV normalized to plasma, Cortex [7, 20]: 1.42
SUV normalized to plasma, Frontal Cortex [7, 20]: 1.43
SUV normalized to plasma, Hippocampus [7, 20]: 1.61
SUV normalized to plasma, Hypothalamus [7, 20]: 1.63
SUV normalized to plasma, Striatum [7, 20]: 1.47
SUV normalized to plasma, Thalamus [7, 20]: 1.61
SUV normalized to plasma, Whole Brain [7, 20]: 1.53
% Change of SUV normalized to plasma, Cerebellum ([7]; rats, Pretargeted vs Baseline): 31%
% Change of SUV normalized to plasma, Cortex ([7]; rats, Pretargeted vs Baseline): 35%
% Change of SUV normalized to plasma, Frontal Cortex ([7]; rats, Pretargeted vs Baseline): 29%
% Change of SUV normalized to plasma, Hippocampus ([7]; rats, Pretargeted vs Baseline): 34%
% Change of SUV normalized to plasma, Hypothalamus ([7]; rats, Pretargeted vs Baseline): 20%
% Change of SUV normalized to plasma, Striatum ([7]; rats, Pretargeted vs Baseline): 16%
% Change of SUV normalized to plasma, Thalamus ([7]; rats, Pretargeted vs Baseline): 18%
% Change of SUV normalized to plasma, Whole Brain ([7]; rats, Pretargeted vs Baseline): 26%
% Change of SUV Cerebellum [7, 21]: 25%
% Change of SUV Cortex [7, 21]: 33%
% Change of SUV Frontal Cortex [7, 21]: 25%
% Change of SUV Hippocampus [7, 21]: 29%
% Change of SUV Hypothalamus [7, 21]: 17%
% Change of SUV Striatum [7, 21]: 16%
% Change of SUV Thalamus [7, 21]: 19%
% Change of SUV Whole Brain [7, 21]: 23%
brain entry of tracer ([7]; rats, highest uptake in thalamus/hypothalamus, lowest in cortical regions): readily entered the brain
uptake of the tracer in the brain, baseline PET/CT ([8]; 2-hour scan): good uptake
SUV uptake, baseline vs post-ASO scans (whole brain ROI) ([8]; 24 h and 7 days after Malat1 ASO-TCO i.t.): No significant different
difference in SUV between baseline and pretargeted scans in the brain ([8]; normalized TACs, final timepoint): ~10%
efflux ratio [9]: 0.51
increase in radioactivity uptake in the CSF [10, 22]: 15%
increase in radioactivity uptake in the spine [10, 22]: 10%
Radioactivity uptake CSF [10, 23]: 1.18
Radioactivity uptake Spine [10, 23]: 0.95
Radioactivity uptake Spine ([10]; rats, Pretargeted group (i.t. dosing of ASO-TCO), ca. 70-80 min after tracer injection): 1.04
% Change of radioactivity uptake CSF ([10]; rats, Pretargeted vs Baseline): 16%
% Change of radioactivity uptake Spine ([10]; rats, Pretargeted vs Baseline): 9%
fraction unbound ([11]; read-out: PPB (rat) unbound): 0.375
brain uptake [12]: 1.7±0.9 % ID

fraction unbound ([3]; rat, brain tissue (brain protein binding)): 0.51
efflux ratio [13]: 1.71
efflux ratio [9]: 0.51
fraction unbound ([11]; read-out: plasma protein binding, unbound): 0.69
Compound: O=C(Cc1ccc(-c2nncnn2)cc1)NCCF [Compound 1′, 2-(4-(1,2,4,5-tetrazin-3-yl)phenyl)-N-(2-fluoroethyl)acetamide]
